Source: ChEMBL document CHEMBL4673231, “Novel isoniazid embedded triazole derivatives: Synthesis, antitubercular and antimicrobial activity evaluation” (Bioorg Med Chem Lett, 2020)
Activity calls are given as the source filed them. The calls are words filed in the database; no cut-off is given here.

Columns and labels:
Bacillus subtilis = experiment: Antibacterial activity against Bacillus subtilis assessed as diameter of inhibition zone at 1 mg/ml incubated for 24 hrs by agar well diffusion assay; type: functional; conditions: for zone of inhibition at 1000 µg/mL: read-out: DIZ
[1] = tested on: Salmonella enterica subsp. enterica serovar Abony; experiment: Antibacterial activity against Salmonella enterica subsp. enterica serovar Abony assessed as diameter of inhibition zone at 1 mg/ml incubated for 24 hrs by agar well diffusion assay; type: functional
Salmonella typhi = experiment: Antibacterial activity against Salmonella typhi assessed as diameter of inhibition zone at 1 mg/ml incubated for 24 hrs by agar well diffusion assay; type: functional, Salmonella enterica subsp. enterica serovar Typhi; conditions: for zone of inhibition at 1000 µg/mL: Salmonella enterica, read-out: DIZ; for diameter of the inhibition zone (DIZ): Salmonella enterica subsp. enterica serovar Typhi
Shigella boydii = experiment: Antibacterial activity against Shigella boydii assessed as diameter of inhibition zone at 1 mg/ml incubated for 24 hrs by agar well diffusion assay; type: functional
Saccharomyces cerevisiae = experiment: Antifungal activity against Saccharomyces cerevisiae assessed as diameter of inhibition zone at 1 mg/ml incubated for 24 hrs by agar well diffusion assay; type: functional; conditions: for zone of inhibition at 1000 µg/mL: read-out: DIZ
Bacillus cereus = experiment: Antibacterial activity against Bacillus cereus assessed as diameter of inhibition zone at 1 mg/ml incubated for 24 hrs by agar well diffusion assay; type: functional
[2] = tested on: Mycobacterium tuberculosis; experiment: Antimycobacterial activity against Mycobacterium tuberculosis H37Rv assessed as reduction in microbial growth incubated for 7 days by alamar blue assay; type: functional; conditions: 168 h, time 7 day
Escherichia coli = experiment: Antibacterial activity against Escherichia coli assessed as diameter of inhibition zone at 1 mg/ml incubated for 24 hrs by agar well diffusion assay; type: functional; conditions: for zone of inhibition at 1000 µg/mL: read-out: DIZ
Staphylococcus aureus = experiment: Antibacterial activity against Staphylococcus aureus assessed as diameter of inhibition zone at 1 mg/ml incubated for 24 hrs by agar well diffusion assay; type: functional
Pseudomonas aeruginosa = experiment: Antibacterial activity against Pseudomonas aeruginosa assessed as diameter of inhibition zone at 1 mg/ml incubated for 24 hrs by agar well diffusion assay; type: functional; conditions: for zone of inhibition at 1000 µg/mL: read-out: DIZ
Klebsiella aerogenes = experiment: Antibacterial activity against Enterobacter aerogenes assessed as diameter of inhibition zone at 1 mg/ml incubated for 24 hrs by agar well diffusion assay; type: functional; conditions: for zone of inhibition at 1000 µg/mL: read-out: DIZ
Aspergillus niger = experiment: Antifungal activity against Aspergillus niger assessed as diameter of inhibition zone at 1 mg/ml incubated for 24 hrs by agar well diffusion assay; type: functional; conditions: for zone of inhibition at 1000 µg/mL: read-out: DIZ
[3] = Cytotoxicity against mouse RAW264.7 cells assessed as reduction in cell viability at 25 ug/ml incubated for 48 hrs by MTT assay; type: cell-based; conditions: at 25 µg/mL, read-out: INH

| SMILES | diameter of the inhibition zone (DIZ) (Bacillus subtilis) | diameter of the inhibition zone (DIZ) [1] | zone of inhibition at 1000 µg/mL (Salmonella typhi) | diameter of the inhibition zone (DIZ) (Shigella boydii) | diameter of the inhibition zone (DIZ) (Bacillus cereus) | MIC [2] | diameter of the inhibition zone (DIZ) (Escherichia coli) | diameter of the inhibition zone (DIZ) (Staphylococcus aureus) | zone of inhibition at 1000 µg/mL (Pseudomonas aeruginosa) | diameter of the inhibition zone (DIZ) (Klebsiella aerogenes) | zone of inhibition at 1000 µg/mL (Aspergillus niger) | cytotoxicity at 48 h, 25 ug/ml [3] | diameter of the inhibition zone (DIZ) (Saccharomyces cerevisiae) | diameter of the inhibition zone (DIZ) (Aspergillus niger) | also measured |
| --- | --- | --- | --- | --- | --- | --- | --- | --- | --- | --- | --- | --- | --- | --- | --- |
| O=C(N/N=C/c1cc([N+](=O)[O-])ccc1OCc1cn(-c2ccc(Cl)cc2)nn1)c1ccncc1 | inactive | inactive | 13 mm | inactive | inactive | 25 µg/mL | inactive | inactive | 15 mm | inactive | 16 mm | – | – | – | zone of inhibition at 1000 µg/mL (Saccharomyces cerevisiae): 10 mm |
| CC[C@@H](CO)NCCN[C@@H](CC)CO [ETHAMBUTOL] | – | – | – | – | – | 3.12 µg/mL | – | – | – | – | – | – | – | – | – |
| CO[C@H]1/C=C/O[C@@]2(C)Oc3c(C)c(O)c4c(O)c(c(/C=N/N5CCN(C)CC5)c(O)c4c3C2=O)NC(=O)/C(C)=C\C=C\[C@H](C)[C@H](O)[C@@H](C)[C@@H](O)[C@@H](C)[C@H](OC(C)=O)[C@@H]1C [RIFAMPIN] | – | – | – | – | – | 0.2 µg/mL | – | – | – | – | – | – | – | – | – |
| Cc1ccc([N+](=O)[O-])cc1-n1cc(COc2ccc([N+](=O)[O-])cc2/C=N/NC(=O)c2ccncc2)nn1 | inactive | inactive | – | inactive | inactive | 0.78 µg/mL | – | inactive | 9 mm | inactive | 13 mm | 23.9% | inactive | – | diameter of the inhibition zone (DIZ) (Salmonella typhi): inactive; zone of inhibition at 1000 µg/mL (Escherichia coli): 12 mm |
| Cc1cc(C)c(-n2cc(COc3ccc([N+](=O)[O-])cc3/C=N/NC(=O)c3ccncc3)nn2)c(C)c1 | inactive | inactive | 10 mm | inactive | inactive | 0.78 µg/mL | inactive | inactive | – | inactive | – | 27.7% | inactive | inactive | diameter of the inhibition zone (DIZ) (Pseudomonas aeruginosa): inactive |
| OC(Cn1cncn1)(Cn1cncn1)c1ccc(F)cc1F [FLUCONAZOLE] | – | – | – | – | – | – | – | – | – | – | 30 mm | – | – | – | zone of inhibition at 1000 µg/mL (Saccharomyces cerevisiae): 30 mm |
| Cc1ccc(-n2cc(COc3ccc([N+](=O)[O-])cc3/C=N/NC(=O)c3ccncc3)nn2)c(C)c1 | inactive | inactive | 11 mm | inactive | inactive | 3.12 µg/mL | inactive | inactive | – | inactive | – | 17.6% | inactive | inactive | diameter of the inhibition zone (DIZ) (Pseudomonas aeruginosa): inactive |
| COc1cccc(-n2cc(COc3ccc([N+](=O)[O-])cc3/C=N/NC(=O)c3ccncc3)nn2)c1 | – | – | 12 mm | inactive | inactive | 0.78 µg/mL | – | inactive | 10 mm | – | 13 mm | 23.9% | inactive | – | zone of inhibition at 1000 µg/mL (Bacillus subtilis): 12 mm; zone of inhibition at 1000 µg/mL ([1]; read-out: DIZ): 8 mm; zone of inhibition at 1000 µg/mL (Escherichia coli): 9 mm; zone of inhibition at 1000 µg/mL (Klebsiella aerogenes): 6 mm |
| O=C(O)c1cn(C2CC2)c2cc(N3CCNCC3)c(F)cc2c1=O [CIPROFLOXACIN] | – | – | – | – | – | 1.56 µg/mL | – | – | – | – | – | – | – | – | – |
| O=C(N/N=C/c1cc([N+](=O)[O-])ccc1OCc1cn(-c2ccccc2F)nn1)c1ccncc1 | – | inactive | 10 mm | inactive | inactive | 12.5 µg/mL | inactive | inactive | 13 mm | – | – | 19.3% | inactive | inactive | zone of inhibition at 1000 µg/mL (Bacillus subtilis): 11 mm; zone of inhibition at 1000 µg/mL (Klebsiella aerogenes): 10 mm |
| Cc1cccc(-n2cc(COc3ccc([N+](=O)[O-])cc3/C=N/NC(=O)c3ccncc3)nn2)c1 | – | inactive | 10 mm | inactive | – | 12.5 µg/mL | inactive | – | 12 mm | – | 8 mm | 23.2% | inactive | – | zone of inhibition at 1000 µg/mL (Bacillus subtilis): 10 mm; zone of inhibition at 1000 µg/mL (Bacillus cereus; read-out: DIZ): 13 mm; zone of inhibition at 1000 µg/mL (Staphylococcus aureus; read-out: DIZ): 13 mm; zone of inhibition at 1000 µg/mL (Klebsiella aerogenes): 8 mm |
| O=C(N/N=C/c1cc([N+](=O)[O-])ccc1OCc1cn(-c2cccc([N+](=O)[O-])c2)nn1)c1ccncc1 | inactive | inactive | – | inactive | inactive | 0.78 µg/mL | inactive | inactive | – | inactive | – | 22.7% | inactive | inactive | diameter of the inhibition zone (DIZ) (Salmonella typhi): inactive; diameter of the inhibition zone (DIZ) (Pseudomonas aeruginosa): inactive |
| CCc1ccc(-n2cc(COc3ccc([N+](=O)[O-])cc3/C=N/NC(=O)c3ccncc3)nn2)cc1 | inactive | inactive | – | inactive | inactive | 0.78 µg/mL | – | inactive | 10 mm | inactive | 10 mm | 26.9% | inactive | – | diameter of the inhibition zone (DIZ) (Salmonella typhi): inactive; zone of inhibition at 1000 µg/mL (Escherichia coli): 10 mm |
| O=C(N/N=C/c1cc([N+](=O)[O-])ccc1OCc1cn(-c2ccccc2)nn1)c1ccncc1 | inactive | inactive | – | inactive | inactive | 0.78 µg/mL | – | inactive | 13 mm | – | – | 25.7% | – | inactive | diameter of the inhibition zone (DIZ) (Salmonella typhi): inactive; zone of inhibition at 1000 µg/mL (Saccharomyces cerevisiae): 10 mm; zone of inhibition at 1000 µg/mL (Escherichia coli): 12 mm; zone of inhibition at 1000 µg/mL (Klebsiella aerogenes): 14 mm |
| NNC(=O)c1ccncc1 [ISONIAZID] | – | – | – | – | – | 0.1 µg/mL | – | – | – | – | – | – | – | – | – |
